Measurements taken from the supplement of paper PMC10307832.

How the values were obtained:
Experiment in all cases: relative viability (nuclei count vs DMSO), 5 days (fraction); higher = more cells survive
ALW-II-49-7 + Luminespib = compound: Cc1ccc(C(=O)Nc2cccc(C(F)(F)F)c2)cc1Nc1cncc(C(N)=O)c1 [ALW-II-49-7] + CCNC(=O)c1noc(-c2cc(C(C)C)c(O)cc2O)c1-c1ccc(CN2CCOCC2)cc1 [Luminespib] (partner 0.01 µM)
In short: (§1)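 Lung cancer cell lines were pin-tool dosed in 1536-well plates on the day after seeding, with either a lone drug or a fixed anchor-drug dose plus five library-drug doses (not always all listed) in √10 steps. Nuclei were counted on 4× images after 5 days. Relative viability is the ratio of treated-well to vehicle-well nuclei counts, with each value a median of duplicate plates.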

Dasatinib + Decitabine = compound: Cc1nc(Nc2ncc(C(=O)Nc3c(C)cccc3Cl)s2)cc(N2CCN(CCO)CC2)n1 [Dasatinib] + Nc1ncn([C@H]2C[C@H](O)[C@@H](CO)O2)c(=O)n1 [Decitabine] (partner 2 µM)
In short: as §1

Dasatinib + Olaparib = compound: Cc1nc(Nc2ncc(C(=O)Nc3c(C)cccc3Cl)s2)cc(N2CCN(CCO)CC2)n1 [Dasatinib] + O=C(c1cc(Cc2n[nH]c(=O)c3ccccc23)ccc1F)N1CCN(C(=O)C2CC2)CC1 [Olaparib] (partner 8 µM)
In short: as §1

ALW-II-49-7 + Bortezomib = compound: Cc1ccc(C(=O)Nc2cccc(C(F)(F)F)c2)cc1Nc1cncc(C(N)=O)c1 [ALW-II-49-7] + CC(C)C[C@H](NC(=O)[C@H](Cc1ccccc1)NC(=O)c1cnccn1)B(O)O [Bortezomib] (partner 0.002 µM)
In short: as §1

Cell Line	relative viability (ALW-II-49-7 + Luminespib; first compound 0.08 µM)	relative viability (ALW-II-49-7 + Luminespib; first compound 0.253 µM)	relative viability (ALW-II-49-7 + Luminespib; first compound 0.8 µM)	relative viability (ALW-II-49-7 + Luminespib; first compound 2.53 µM)	relative viability (ALW-II-49-7 + Luminespib; first compound 8 µM)	relative viability (Dasatinib + Decitabine; first compound 0.005 µM)	relative viability (Dasatinib + Decitabine; first compound 0.01581 µM)	relative viability (Dasatinib + Decitabine; first compound 0.05 µM)	relative viability (Dasatinib + Decitabine; first compound 0.1581 µM)	relative viability (Dasatinib + Decitabine; first compound 0.5 µM)	relative viability (Dasatinib + Olaparib; first compound 0.005 µM)	relative viability (Dasatinib + Olaparib; first compound 0.01581 µM)	relative viability (Dasatinib + Olaparib; first compound 0.05 µM)	relative viability (Dasatinib + Olaparib; first compound 0.1581 µM)	relative viability (Dasatinib + Olaparib; first compound 0.5 µM)	relative viability (ALW-II-49-7 + Bortezomib; first compound 0.08 µM)	relative viability (ALW-II-49-7 + Bortezomib; first compound 0.253 µM)	relative viability (ALW-II-49-7 + Bortezomib; first compound 0.8 µM)	relative viability (ALW-II-49-7 + Bortezomib; first compound 2.53 µM)	relative viability (ALW-II-49-7 + Bortezomib; first compound 8 µM)
NCI-H1623	0.518	0.428	0.431	0.561	0.698															
HCC-827	0.795	0.587	0.678	0.683	1.76	0.35	0.271	0.309	0.224	0.159	0.595	0.577	0.535	0.209	0.106	1.13	1.03	1.03	1.1	1.03
NCI-H322M	0.897	0.762	0.965	0.868	0.833	0.755	0.589	0.518	0.45	0.253	0.707	0.575	0.492	0.322	0.244	1.09	1.36	1.43	1.32	1.26
ChaGo-K-1	0.529	0.664	0.544	0.444	0.438	0.545	0.5	0.543	0.49	0.416	0.424	0.404	0.426	0.393	0.325	0.769	1.23	1.1	1.18	0.864
BEN	0.682	0.458	0.509	0.521	0.24	0.667	0.598	0.567	0.442	0.387	0.755	0.641	0.724	0.549	0.456	0.851	0.828	0.789		0.875
NCI-H2347	0.241	0.483	0.363	0.324	0.512	0.562	0.538	0.459	0.322	0.265	0.566	0.508	0.482	0.269	0.256	0.539	1.28	1.08	0.23	0.566
LOU-NH91	0.384	0.363	0.321	0.276	0.283	0.83	0.819	0.743	0.66	0.421	0.925	0.807	0.726	0.615	0.372	0.425	0.529	0.549	0.316	0.489
NCI-H2228	0.255	0.14	0.16	0.145	0.215						0.847	0.647	0.714	0.464	0.273	1.06	0.636	0.975	0.915	1.16
NCI-H2342	0.641	0.705	0.676	0.751	0.775	0.685	0.598	0.632	0.51	0.321	0.564	0.397	0.364	0.274	0.285					
HCC-366						0.354	0.262	0.247	0.188	0.215	0.263	0.206	0.217	0.157	0.141	1.1	0.578	1.02	1.14	1.13
NCI-H2405	0.788	0.598	0.646	0.474	0.459	0.693	0.489	0.45	0.293	0.219	0.749	0.531	0.458	0.282	0.231	1.05	0.886	1.09	0.954	0.89
Calu-6											0.57	0.434	0.449	0.357	0.34	1.18	0.95	1.04	0.785	0.885
201T	1.06	0.907	1.07	0.993	1.09	0.834	0.795	0.802	0.646	0.416	0.783	0.753	0.707	0.636	0.445	1.1	1.13	1.09	1.08	1.06
CAL-12T	0.193	0.293	0.517	0.285	0.38						0.689	0.688	0.877	0.755	0.575	0.923			0.978	0.721
HCC-44		0.987	1.12	0.333	1.04	1.04	0.915	1.04	0.886	0.624	1.03	0.958	1.11	1.13	0.986	0.84	0.89	0.885	0.846	0.889
NCI-H358	0.272	0.318	0.244	0.322	0.245	0.211	0.173	0.169	0.127	0.146	0.464	0.431	0.427	0.303	0.139					
SW 900	0.16	0.141	0.191	0.171	0.155	0.46	0.39	0.398	0.413	0.23	0.65	0.436	0.395	0.324	0.336					
NCI-H2087	0.142	0.166	0.197	0.171	0.171	0.301	0.336	0.259	0.145	0.113	0.635	0.55	0.902	0.42	0.349	0.759	0.959	0.824	0.846	0.857
COR-L 105	0.745	0.646	0.845	0.72	0.879	0.599	0.604	0.478	0.445	0.297	0.517	0.494	0.617	0.452	0.336	0.802	0.681	0.826	0.587	0.767
